Patent publication US9320722B2, “Regulators of aldehyde dehydrogenase ALDH3A1 and related therapeutic methods” (Indiana University Research and Technology Corporation, priority 2013, dated 2016)
Read-outs that look alike come from different tables or passages of the source.

How the values were obtained:
ALDH3A1 [1] = molecular target: T1, ALDH3A1 (Homo sapiens (Human), UniProt P30838); experiment: biochemical; conditions: for inhibition at 10 µM: read-out: % activity left after treating with 10 micromolar inhibitor ALDH3A1
Protocol: (§2) The enzymatic activity of ALDH1A1, ALDH2 and ALDH3A1 were measured as described previously^[30,34,37,39].
(§3) All reactions were initiated by the addition of the aldehyde substrate. The inhibition curves were fit to the Logistic four parameter IC50 equation using the SigmaPlot (v11, StatSys). We characterized the mode of inhibition using steady-state kinetics through co-variation of inhibitor and substrate concentrations. The steady state kinetic measurements were performed in 100 mM Na2HPO4 buffer, pH 7.5. […] In all cases—including the control reactions lacking inhibitors, the final reaction mixture contained 2% (v/v) DMSO. The reaction was initiated by addition of substrate and the initial rate of product formation was determined on a Beckman DU-640. All data were fit to the non-linear velocity expressions for competitive, non-competitive, mixed-type non-competitive and uncompetitive inhibition^[40]. Appropriateness of the inhibition model was determined through analysis of goodness-of-fit and the residuals of those fits. Lineweaver-Burke plots were created using SigmaPlot (v11, StatSys) to visualize the inhibition patterns. All data represent the average of three independent experiments utilizing triplicate assays at each concentration point.
(§4) ALDH1A1, ALDH2 and ALDH3A1 activities were measured as described earlier^33,44,45. […] Reaction was initiated by the addition of the aldehyde substrate. […] The inhibition curves were fit to the Logistic four parameter IC50 equation using the SigmaPlot (v11, StatSys). Steady state kinetic experiments were performed by co-varying inhibitor and substrate concentrations. The steady state kinetic measurements were performed in 100 mM Na2HPO4 buffer, pH 7.5.

ALDH2 = ALDH2 (Homo sapiens (Human), UniProt P05091); experiment: ALDH2 dehydrogenase activity / IC50 determination (propionaldehyde substrate); format: biochemical; conditions: for IC50: Table 4, hits from ChemDiv screen, NI not defined, read-out: IC50 (micromolar) ALDH2; for inhibitory potential toward ALDH2 activity in vitro (in words): CB29 analogs
Protocol: The enzymatic activity of ALDH1A1, ALDH2 and ALDH3A1 were measured as described previously^[30,34,37,39]. The specific activities of the purified proteins were 1.9, 3.8 and 32 μmole/min/mg for ALDH1A1, ALDH2 and ALDH3A1 respectively.
as §3, §4

ALDH1A1 = ALDH1A1 (Homo sapiens (Human), UniProt P00352); experiment: ALDH1A1 dehydrogenase activity / IC50 determination (propionaldehyde substrate); format: biochemical; conditions: for IC50: Table 4, hits from ChemDiv screen, read-out: IC50 (micromolar) ALDH1A1; for inhibitory potential / activity toward ALDH1A1 in vitro (in words): CB29 analogs; for IC50 (micromolar) ALDH1A1: Tables 1A/1B, propionaldehyde substrate, S.D. in parentheses
Protocol: as §2, §3, §4

ALDH3A1 [2] = molecular target: T1, ALDH3A1
Protocol: as §2, §3, §4

A549 cells = experiment: MTT assay for cell proliferation / mafosfamide sensitivity, A549; format: cell-based; conditions: FIG. 4A; for sensitivity to mafosfamide on co-treatment (in words), A549: 50 μM inhibitor + mafosfamide; for effect on cell proliferation as single agent (in words), A549: 50 μM inhibitor
SF767 cells = experiment: MTT assay for cell proliferation / mafosfamide sensitivity, SF767; format: cell-based; conditions: for sensitivity to mafosfamide on co-treatment (in words), SF767: 50 μM inhibitor + […] mafosfamide; for sensitivity to mafosfamide on co-treatment (in words), SF767 / effect on cell proliferation as single agent (in words), SF767: FIG. 4B; for effect on cell proliferation as single agent (in words), SF767: 50 μM inhibitor; for chemosensitivity to mafosfamide (in words), SF767: 10 μM inhibitor + mafosfamide
Solubility = format: physicochemical; conditions: in the presence of […] DMSO
ALDH3A1 [3] = molecular target: T1, ALDH3A1; format: biochemical; conditions: wt ALDH3A1
Protocol: as §3
Reaction was initiated by the addition of the aldehyde substrate. […] The inhibition curves were fit to the Logistic four parameter IC50 equation using the SigmaPlot (v11, StatSys). Steady state kinetic experiments were performed by co-varying inhibitor and substrate concentrations. The steady state kinetic measurements were performed in 100 mM Na2HPO4 buffer, pH 7.5.
The initial rate of product formation was determined on a Beckman DU-640. All data were fit to the non-linear velocity expressions for competitive, non-competitive, mixed-type non-competitive and uncompetitive inhibition^46. Appropriateness of the inhibition model was determined through analysis of goodness-of-fit and the residuals of those fits. Lineweaver-Burke plots were created using SigmaPlot (v11, StatSys) to visualize the inhibition patterns. All data represent the average of three independent experiments utilizing triplicate assays at each concentration point.

ALDH3A1 Q122A mutant = ALDH3A1 Q122A mutant (Homo sapiens (Human), UniProt P30838, Q123A)
Protocol: (§1) These two mutant proteins were purified exactly the same way as was ALDH3A1. […] Kinetic experiments were performed exactly the same way as the wild type (WT) enzyme.

ALDH3A1 Q122W mutant = ALDH3A1 Q122W mutant (Homo sapiens (Human), UniProt P30838, Q123W)
Protocol: as §1

[4] = read-out: IC50 (micromolar) ALDH3A1, Table 4, hits from ChemDiv screen
[5] = read-out: IC50 (micromolar) ALDH3A1, Tables 1A/1B, benzaldehyde substrate, S.D. for three assays in parentheses
[6] = read-out: IC50 against ALDH3A1, benzaldehyde substrate

ALDH2, sequence (P05091 18-517): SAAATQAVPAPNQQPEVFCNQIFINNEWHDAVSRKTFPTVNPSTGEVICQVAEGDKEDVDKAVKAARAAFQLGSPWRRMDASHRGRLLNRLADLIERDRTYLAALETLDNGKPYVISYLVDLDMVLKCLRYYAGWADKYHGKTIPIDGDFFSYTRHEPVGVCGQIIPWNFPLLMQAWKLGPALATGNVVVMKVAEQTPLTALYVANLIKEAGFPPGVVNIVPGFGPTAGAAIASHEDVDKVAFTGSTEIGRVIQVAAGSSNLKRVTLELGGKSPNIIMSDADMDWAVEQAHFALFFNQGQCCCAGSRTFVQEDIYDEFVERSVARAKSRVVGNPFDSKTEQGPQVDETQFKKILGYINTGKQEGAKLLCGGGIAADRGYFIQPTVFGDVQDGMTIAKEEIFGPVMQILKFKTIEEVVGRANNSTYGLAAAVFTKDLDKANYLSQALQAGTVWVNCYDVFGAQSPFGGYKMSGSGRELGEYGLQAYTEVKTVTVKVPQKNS
ALDH3A1 Q122A mutant, sequence (P30838 whole entry Q123A): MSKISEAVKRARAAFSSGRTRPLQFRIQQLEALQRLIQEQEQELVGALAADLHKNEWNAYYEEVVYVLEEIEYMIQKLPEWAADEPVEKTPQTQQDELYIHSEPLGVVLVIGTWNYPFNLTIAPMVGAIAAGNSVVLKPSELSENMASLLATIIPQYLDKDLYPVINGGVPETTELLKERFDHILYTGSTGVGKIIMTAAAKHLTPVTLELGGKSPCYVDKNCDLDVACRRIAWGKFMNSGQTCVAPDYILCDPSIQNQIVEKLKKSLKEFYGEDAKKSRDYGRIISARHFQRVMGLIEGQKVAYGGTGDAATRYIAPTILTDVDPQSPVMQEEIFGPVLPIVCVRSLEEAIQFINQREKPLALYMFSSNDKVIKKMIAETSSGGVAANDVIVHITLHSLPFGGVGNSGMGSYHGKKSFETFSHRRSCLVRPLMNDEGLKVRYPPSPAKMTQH
ALDH1A1, sequence (P00352 whole entry): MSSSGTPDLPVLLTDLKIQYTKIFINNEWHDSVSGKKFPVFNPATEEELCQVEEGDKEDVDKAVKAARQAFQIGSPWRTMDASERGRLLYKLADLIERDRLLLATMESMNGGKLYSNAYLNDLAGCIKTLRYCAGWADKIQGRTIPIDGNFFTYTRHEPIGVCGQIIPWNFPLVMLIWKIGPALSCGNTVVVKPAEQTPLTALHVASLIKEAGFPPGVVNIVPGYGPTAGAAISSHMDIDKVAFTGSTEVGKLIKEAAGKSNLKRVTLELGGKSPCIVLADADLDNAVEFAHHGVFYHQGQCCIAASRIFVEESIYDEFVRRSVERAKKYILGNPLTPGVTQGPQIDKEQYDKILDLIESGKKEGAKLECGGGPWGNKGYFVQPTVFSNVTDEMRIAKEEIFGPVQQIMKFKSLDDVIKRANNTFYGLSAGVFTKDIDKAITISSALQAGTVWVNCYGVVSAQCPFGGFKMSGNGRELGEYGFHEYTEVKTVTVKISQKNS
T1 sequence (P30838 whole entry): as the sequence (P30838 whole entry Q123A) above, with A123Q counted along it
ALDH3A1 Q122W mutant, sequence (P30838 whole entry Q123W): as the sequence (P30838 whole entry Q123A) above, with A123W counted along it

Cc1ccc(-c2ccc(/C=C/[N+](=O)O)o2)c(Br)c1 [CB39] gave an inhibition at 10 µM (ALDH3A1 [1]) of 32%.
COc1ccc(/C=C/[N+](=O)O)cc1I [CB40] showed an inhibition at 10 µM (ALDH3A1 [1]) of 30%.
For CN(C)c1ccc(/C=C/[N+](=O)O)cc1Br [CB41], the inhibition at 10 µM (ALDH3A1 [1]) was 45%.
C#CCOc1c(Cl)cc(/C=C/[N+](=O)O)cc1OC [CB42] gave an inhibition at 10 µM (ALDH3A1 [1]) of 46%.
For O=C1Nc2ccccc2C12Oc1ccccc1C1CC(c3ccccc3)=NN12 (centres unmarked) [CD3], the IC50 (ALDH2) was 41.8 µM, the IC50 (ALDH1A1) was 6.5 µM and the IC50 (ALDH3A1 [2]; [4]) was 38.5 µM.
Work on CCCSc1nnc2c(n1)OC(C(=O)c1ccc(OC)cc1)Nc1ccccc1-2 (centres unmarked) [CD4] yielded an IC50 (ALDH2) of 1.4 µM, an IC50 (ALDH1A1) of 21.2 µM and an IC50 (ALDH3A1 [2]; [4]) of 2.5 µM.
For CCSc1nnc2c(n1)OC(C(=O)c1ccc(OC)cc1)Nc1ccccc1-2 (centres unmarked) [CD5], the IC50 (ALDH2) was 1.2 µM, the IC50 (ALDH1A1) was 8.2 µM and the IC50 (ALDH3A1 [2]; [4]) was 1.5 µM.
CCOC(=O)CN1C(=O)C(O)(CC(=O)c2ccccn2)c2ccccc21 (centres unmarked) [CD7] gave an IC50 (ALDH1A1) of 0.7 µM and an IC50 (ALDH3A1 [2]; [4]) of 25.5 µM.
CCOC(=O)CN1C(=O)C(O)(CC(=O)c2ccncc2)c2ccccc21 (centres unmarked) [CD8] gave an IC50 (ALDH2) of 11.1 µM, an IC50 (ALDH1A1) of 0.8 µM and an IC50 (ALDH3A1 [2]; [4]) of 6.3 µM.
Cc1ccc(S(=O)(=O)NC(O)C(=O)c2cccs2)cc1 (centres unmarked) [CD10] showed an IC50 (ALDH2) of 2.2 µM, an IC50 (ALDH1A1) of 4 µM and an IC50 (ALDH3A1 [2]; [4]) of 3.4 µM.
In the case of O=C(NC(O)C(=O)c1cccs1)c1cccnc1 (centres unmarked) [CD11], the IC50 (ALDH2) is reported as 6.5 µM, the IC50 (ALDH1A1) is reported as 5.9 µM and the IC50 (ALDH3A1 [2]; [4]) is reported as 10.2 µM.
O=C(NC(O)C(=O)c1cccs1)c1ccncc1 (centres unmarked) [CD12] gave an IC50 (ALDH2) of 5.3 µM, an IC50 (ALDH1A1) of 4.2 µM and an IC50 (ALDH3A1 [2]; [4]) of 5.6 µM.
Compound CCn1c(-c2ccc(OC)c(F)c2)cs/c1=N/c1ccccc1 [CD13] has an IC50 (ALDH2) of 7.3 µM, an IC50 (ALDH1A1) of 6.3 µM and an IC50 (ALDH3A1 [2]; [4]) of 60 µM.
Work on CCCC1C(C#N)=C(SCC(=O)c2ccc(Br)cc2)NC(C)=C1C(C)=O (centres unmarked) [CD14] yielded an IC50 (ALDH2) of 13.7 µM, an IC50 (ALDH1A1) of 10.4 µM and an IC50 (ALDH3A1 [2]; [4]) of 71.5 µM.
Cc1cccc(C(=O)CN2CCN(S(=O)(=O)c3cc(Cl)ccc3Cl)CC2)c1 [CD20] showed an IC50 (ALDH1A1) of 33 µM and an IC50 (ALDH3A1 [2]; [4]) of 41 µM.
For CNS(=O)(=O)c1ccc(Nc2ccc(F)cc2)c([N+](=O)[O-])c1 [Compound 2], the “inhibitory potential toward ALDH2 activity in vitro (in words)” value (ALDH2) was “no inhibitory potential”, the “inhibitory potential / activity toward ALDH1A1 in vitro (in words)” value (ALDH1A1) was “no inhibitory potential” and the “sensitivity to mafosfamide on co-treatment (in words), A549” value (shortened to “sensitivity to mafosfamide … A549”) (A549 cells) was “increased sensitivity to mafosfamide”. The “effect on cell proliferation as single agent (in words), A549” value (shortened to “effect on cell proliferation … A549”) (A549 cells) was “little effect on cell proliferation”, the “sensitivity to mafosfamide on co-treatment (in words), SF767” value (SF767 cells) was “increased sensitivity to mafosfamide” and the “effect on cell proliferation as single agent (in words), SF767” value (from here on “effect on cell proliferation … SF767”) (SF767 cells) was “little effect on cell proliferation”. The “concentration of homogenous solution easily formed” value (from here on “concentration”) (Solubility) was no less than 100 µM, the IC50 (ALDH3A1 [2]; [5]) was 26 µM and the IC50 (ALDH3A1 [2]; [6]) was 26 µM.
For Cc1ccc(C)c(Nc2ccc(S(C)(=O)=O)cc2[N+](=O)[O-])c1 [Compound 7], the “IC50 (micromolar) ALDH1A1” value (ALDH1A1) was “WA (WA represents (30-50) % activation shown by 100 μM compound to respective enzymes)”.
With Cc1ccc(Nc2ccc(S(C)(=O)=O)cc2[N+](=O)[O-])cc1F [Compound 8] the “inhibitory potential toward ALDH2 activity in vitro (in words)” value (ALDH2) was “no inhibitory potential”, the “inhibitory potential / activity toward ALDH1A1 in vitro (in words)” value (ALDH1A1) was “no inhibitory potential” and the “IC50 (micromolar) ALDH1A1” value (ALDH1A1) was “WA (WA represents (30-50) % activation shown by 100 μM compound to respective enzymes)”. The “sensitivity to mafosfamide … A549” value (A549 cells) was “increased sensitivity to mafosfamide”, the “effect on cell proliferation … A549” value (A549 cells) was “little effect on cell proliferation” and the “sensitivity to mafosfamide on co-treatment (in words), SF767” value (SF767 cells) was “increased sensitivity to mafosfamide”. For the same compound, the “effect on cell proliferation … SF767” value (SF767 cells) was “little effect on cell proliferation”, the “concentration” value (Solubility) was no less than 100 µM and the IC50 (ALDH3A1 [2]; [5]) was 10.8 µM. For the same compound, the IC50 (ALDH3A1 [1]) was 10 µM.
For CNS(=O)(=O)c1ccc(Nc2ccc(OC)cc2)c([N+](=O)[O-])c1 [Compound 10], the “inhibitory potential toward ALDH2 activity in vitro (in words)” value (ALDH2) was “no inhibitory potential”, the “inhibitory potential / activity toward ALDH1A1 in vitro (in words)” value (ALDH1A1) was “no inhibitory potential” and the “effect on cell proliferation … A549” value (A549 cells) was “little effect on cell proliferation”. The “effect on cell proliferation … SF767” value (SF767 cells) was “little effect on cell proliferation”, the “concentration” value (Solubility) was no less than 100 µM and the IC50 (ALDH3A1 [2]; [5]) was 31.7 µM. For the same compound, the IC50 (ALDH3A1 [2]; [6]) was 31 µM.
For CNS(=O)(=O)c1ccc(Nc2ccc(OC(F)F)cc2)c([N+](=O)[O-])c1 [Compound 11], the “inhibitory potential toward ALDH2 activity in vitro (in words)” value (ALDH2) was “no inhibitory potential”, the “inhibitory potential / activity toward ALDH1A1 in vitro (in words)” value (ALDH1A1) was “no inhibitory potential” and the “sensitivity to mafosfamide … A549” value (A549 cells) was “increased sensitivity to mafosfamide”. For the same compound, the “effect on cell proliferation … A549” value (A549 cells) was “little effect on cell proliferation”, the “sensitivity to mafosfamide on co-treatment (in words), SF767” value (SF767 cells) was “increased sensitivity to mafosfamide” and the “effect on cell proliferation … SF767” value (SF767 cells) was “little effect on cell proliferation”. For the same compound, the “concentration” value (Solubility) was no less than 100 µM, the IC50 (ALDH3A1 [2]; [5]) was 24.7 µM and the IC50 (ALDH3A1 [2]; [6]) was 24 µM.
For Cc1nc2ccccc2n1S(=O)(=O)c1ccc(Cl)cc1 [Compound A20], the “chemosensitivity to mafosfamide (in words), SF767” value (from here on “chemosensitivity to mafosfamide”) (SF767 cells) was “significantly increased chemosensitivity”.
With O=S(=O)(c1ccc(Cl)cc1)n1cnc2ccccc21 [Compound A21] the “chemosensitivity to mafosfamide” value (SF767 cells) was “significantly increased chemosensitivity”.
With CC(=O)c1nc2ccccc2n1S(=O)(=O)c1ccc(Cl)cc1 [Compound B37] the “chemosensitivity to mafosfamide” value (SF767 cells) was “significantly increased chemosensitivity”.
For CCC=O [Propionaldehyde], the “Propionaldehyde Kcat/Km” value (ALDH3A1 [3]) was 830 ± 50 M⁻¹ s⁻¹, the “Propionaldehyde Kcat/Km” value (ALDH3A1 [3]; listed as propionaldehyde) was 830 M⁻¹ s⁻¹ and the Km (ALDH3A1 [3]; read-out: Propionaldehyde Km) was 20.5 ± 0.272 mM. The “Propionaldehyde Kcat/Km” value (ALDH3A1 Q122A mutant) was 817 ± 50 M⁻¹ s⁻¹, the “Propionaldehyde Kcat/Km” value (ALDH3A1 Q122A mutant; listed as propionaldehyde) was 817 M⁻¹ s⁻¹ and the Km (ALDH3A1 Q122A mutant; read-out: Propionaldehyde Km) was 23.9 ± 1.99 mM. For the same compound, the “Propionaldehyde Kcat/Km” value (ALDH3A1 Q122W mutant) was 650 ± 83 M⁻¹ s⁻¹, the “Propionaldehyde Kcat/Km” value (ALDH3A1 Q122W mutant; listed as propionaldehyde) was 650 M⁻¹ s⁻¹ and the Km (ALDH3A1 Q122W mutant; read-out: Propionaldehyde Km) was 5.36 ± 0.59 mM.
